Earlier results on seven molecules are cited in patent publication US20080095831A1, “TOPICAL FORMULATION OF […] […] COMPOSITION FOR PERCUTANEOUS ABSORPTION OF […] ACTIVE AGENT” (priority 2006, published 2008).

Structures can show the parent of a compound that is named as a salt.

In the case of `CC(=O)[C@H]1CC[C@H]2[C@@H]3CCC4=CC(=O)CC[C@]4(C)[C@H]3CC[C@]12C` [Progesterone], the “solubility in water (in words)” value is listed as “insoluble”.

Take `CC/C(=C(\c1ccccc1)c1ccc(OCCN(C)C)cc1)c1ccccc1` [Tamoxifen citrate]: in the series on keloid cells, the collagen production entry is on record as “decrease” and the keloid fibroblast production result is “inhibit”. Also, the “effect on keloid cells” value in the series with keloid cells (concentration of about 0.01%) is recorded as “deadly effect”.

For the molecule `Clc1cccc(Cl)c1N=C1NCCN1` [clonidine hydrochloride], the “solubility in water (in words)” value is recorded as “freely soluble”.

In the case of `CCCCC(C)(O)C/C=C/[C@H]1[C@H](O)CC(=O)[C@@H]1CCCCCCC(=O)OC` (mixture of isomers) [Misoprostol], the “solubility in water (in words)” value is reported as “water-soluble”.

For `NC(=O)c1cccnc1` [nicotinamide], the “solubility in water (in words)” value was “freely soluble”.

`O=[N+]([O-])O[C@H]1CO[C@H]2[C@@H]1OC[C@H]2O[N+](=O)[O-]` [Isosorbide dinitrate]: the “solubility in water (in words)” value is recorded as “sparingly soluble”.

For `CN(C)CCC=C1c2ccccc2CCc2ccccc21` [Amitriptline], the “solubility in water (in words)” value is reported as “freely soluble”.
